Test results from patent US6723333B1, “Moulded bodies made of thermoplastic polyurethane containing an active substance” (priority 1998, dated 2004).

Tested on: sensor bacteria (E. coli—test strain)
Experiment: Bioimaging of released active substance by effect-dependent bioluminescence of sensor bacteria
Assay type: cell-based
Conditions: after high temperatures of about 200° C. required for thermoplastic processing
Method: Microbiological evaluation and quantification of the release of active substance was performed using a new bioimaging technique. This method makes use of the selective effect-dependent bioluminescence of sensor bacteria (E. coli—test strain), in order to render visible the biological activity of the released active substance. The gyrase-inhibiting effect of ciprofloxacin was used in the system according to the invention, Texin® 5590 ciprofloxacin.
For imaging of the antibacterial effect, about 1 cm^2 sized samples of the active substance-containing material were placed in a petri dish and covered with a suspension of sensor bacteria in agarose. After an incubation period of about 30 minutes, the effect-dependent bioluminescence was assessed using a video-imaging system (e.g. EG&G Berthold, Luminograph LB 980). Antibiotic samples then appeared as luminescing areas.

With `O=C(O)c1cn(C2CC2)c2cc(N3CCNCC3)c(F)cc2c1=O` [ciprofloxacin] the “microbiological efficacy of the ciprofloxacin released from the polymer matrix” value was “retained”.
